Where a SMILES comes first, the peptide text is derived from it. The star is where a group is joined. Acetyl(1-pyrenyl) = O=C(Cc1ccc2ccc3cccc4ccc1c2c34)*; Acetyl(2-naphthyl) = O=C(Cc1ccc2ccccc2c1)*
Legend:
MMP-9 [1] = test: Digestion of peptides by MMP-9; assay type: in vitro ADME; settings: MMP-9 (10 U) in Tris-HCl buffer, pH 7.5
MMP-9 [2] = test: Tris-HCl buffer; settings: 37 °C, up to 72 h

Row | cleaved bond (MMP-9 [2]) | Compound | remaining at 72 h, 500 μM (MMP-9 [1])
1 |  | CC(C)C[C@H](NC(=O)[C@H](CO)NC(=O)[C@H](CC(C)C)NC(=O)[C@@H]1CCCN1C(=O)Cc1ccc2ccc3cccc4ccc1c2c34)C(=O)N[C@@H](CCCNC(=N)N)C(=O)N[C@@H](CO)C(=O)N[C@@H](CCCCN)C(=O)O [4c] ({Acetyl(1-pyrenyl)}-PLSLRSK-OH; N-terminus assumed) | 18%
2 | L-R, major | PLSLRSK | 
3 |  | CC(C)C[C@H](NC(=O)CNC(=O)[C@H](CC(C)C)NC(=O)[C@@H]1CCCN1C(=O)CNC(=O)[C@H](Cc1ccccc1)NC(=O)[C@H](Cc1ccccc1)NC(=O)Cc1ccc2ccccc2c1)C(=O)N[C@@H](CCCNC(=N)N)C(=O)N[C@@H](CO)C(=O)N[C@@H](CCCCN)C(=O)O [3a] ({Acetyl(2-naphthyl)}-FFGPLGLRSK-OH; N-terminus assumed) | 41%
4 | L-R, major | PLGLRSK | 

Source: publication PMC3920740 (Biopolymers, 2013)
